From patent publication US12565467B2, “Compounds, compositions, and methods for the treatment of inflammatory, degenerative, and neurodegenerative diseases” (Board of Supervisors of Louisiana State University and …, priority 2015, dated 2026) come the findings set out here.

Holding throughout (assay type): cell-based, human
One experiment deals with Bcl2. The experiment can be described thus: Bcl2 protein in RPE (LOX-D / ARPE-19) cells under oxidative stress. From the text:
FIG. 9. (A) VLC-PUFA and elovanoids ELV1 and ELV2 mediated effect on Bcl2 upregulation in ARPE-19 cells under stress. In this experiment we tested the effect of elovanoid precursors on Bcl2 upregulation along with VLC-PUFA in stressed RPE. (B) Quantification of Bcl2 upregulation by NPD1, ELV1 and ELV2 in LOX-D cells. Bcl2 is an important antiapoptotic protein of the Bcl2 family protein.
FIG. 9—(A) VLC-PUFA and elovanoids ELV1 and ELV2 mediated effect on Bcl2 upregulation in ARPE-19 cells under stress. In this experiment we tested the effect of elovaniod precursors on Blc2 upregulation along with VLC-PUFA in stressed RPE. (B) Quantification of Bcl2 upregulation by NPD1, ELV1 and ELV2 in LOX-D cells. Bcl2 is an important antiapoptotic protein of the Bcl2 family protein.

The subject of another experiment is Bim. Description: Bim protein in ARPE-19 cells under oxidative stress. The note with it: ARPE-19 cells under stress. From the text: FIG. 7. (A) VLC-PUFA and ELV1 and ELV2 compounds mediated downregulation of Bim in ARPE-19 cells under stress. Bim, another class of Bcl2 family, has been tested like Bid in this figure to confirm our previous results. VLC-PUFA and elovanoids protected against the upregulation of Bim by OS, similar to Bid, in RPE cells under stress. (B) VLC-PUFA and elovanoids mediated effect on Bim downregulation in ARPE-19 cells under stress.
FIG. 7—A) VLC-PUFA and ELV1 and ELV2 compounds mediated […] of Bim in ARPE-19 cells under stress. Bim, another class of Bcl2 family, has been tested like Bid in this figure to confirm our previous results. VLC-PUFA and elovanoids protected the upregulation of Bim by OS, similar to Bid, in RPE cells under stress. (B) VLC-PUFA and elovanoids mediated effect on Bim upregulation in ARPE-19 cells under stress.

The next experiment concerns Bid. Description: Bid protein by western blot in ARPE-19 cells under oxidative stress. From the text: FIG. 6. (A) VLC-PUFA and elovanoids ELV1 and ELV2 mediated effect on Bid upregulation in ARPE-19 cells under stress. […] (B) VLC-PUFA and ELV1 and ELV2 compounds mediated upregulation of Bid in ARPE-19 cells under stress.
FIG. 6—(A) VLC-PUFA and elovanoids ELV1 and ELV2 mediated effect on Bid upregulation in ARPE-19 cells under stress. […] (B) VLC-PUFA and ELV1 and ELV2 compounds mediated upregulation of Bid in ARPE-19 cells under stress.
On the technique in general: Immunoblotting shows a protein as a band on a membrane.

Each structure is given as a SMILES string.

Consider `CC/C=C\C[C@H](O)\C=C/C=C/C=C/[C@H](O)C/C=C\C/C=C\CCCCCCCCCCCCCCC(=O)O` [ELV2, (16Z,19Z,22R,23E,25E,27Z,29S,31Z)-22,29-dihydroxytetratriaconta-16,19,23,25,27,31-hexaenoic acid], for which the “effect on Bcl2 protein (FIG. 9)” value in the experiment on Bcl2 is given as “potent upregulation”. For the same compound, in the experiment on Bim, the “effect on Bim upregulation by OS (FIG. 7)” value was “potent downregulation”. Besides, in the experiment with Bid, the “effect on Bid protein upregulated by OS (FIG. 6)” value is “potent downregulation”.
